{"source": "ChEMBL document CHEMBL1201862", "about": "“PubChem BioAssay data set” (2004)", "key": {"SUMO-activating enzyme": {"biological_target": "SUMO-activating enzyme (Homo sapiens, UniProt Q9UBT2)", "assay": "blockers of UBC9-mediated SUMO conjugation – biochemical, AlphaScreen, SUMOylation inhibitor project, confirmation (AID 2018)", "type": "functional"}, "[1]": {"biological_target": "G-protein coupled receptor 55 (Homo sapiens, UniProt Q9Y2T6)", "assay": "selective activators of receptor GPR55 – imaging, U2OS cells, beta-arrestin-GFP redistribution, primary screen (AID 1961)", "type": "functional"}, "Protein Rev": {"biological_target": "Protein Rev (Human immunodeficiency virus type 1 group M subtype B (isolate HXB2)(HIV-1), UniProt P04618)", "sequence (P04618 whole entry)": "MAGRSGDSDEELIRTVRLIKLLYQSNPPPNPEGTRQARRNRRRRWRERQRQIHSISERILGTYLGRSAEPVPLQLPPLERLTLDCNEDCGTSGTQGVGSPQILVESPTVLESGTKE", "assay": "blockers of HIV Rev/RRE RNA complex – biochemical, fluorescence polarization, HIV-1, dose response (AID 434976)", "design": "species or system Human immunodeficiency virus 1"}, "[2]": {"biological_target": "Female germline-specific tumor suppressor gld-1 (Caenorhabditis elegans, UniProt Q17339)", "sequence (Q17339 whole entry)": "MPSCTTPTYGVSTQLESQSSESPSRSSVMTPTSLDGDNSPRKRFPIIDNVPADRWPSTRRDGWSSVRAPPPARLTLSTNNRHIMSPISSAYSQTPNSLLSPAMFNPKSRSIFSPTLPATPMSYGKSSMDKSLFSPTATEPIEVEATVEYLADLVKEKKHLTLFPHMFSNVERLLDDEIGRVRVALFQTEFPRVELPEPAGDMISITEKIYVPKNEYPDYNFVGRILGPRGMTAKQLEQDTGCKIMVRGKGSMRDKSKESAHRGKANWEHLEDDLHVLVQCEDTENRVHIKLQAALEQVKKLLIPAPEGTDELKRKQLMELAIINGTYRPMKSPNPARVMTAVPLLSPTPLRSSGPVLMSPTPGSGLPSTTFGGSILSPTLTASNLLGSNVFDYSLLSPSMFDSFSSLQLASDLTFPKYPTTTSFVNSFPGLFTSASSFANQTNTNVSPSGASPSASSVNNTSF", "assay": "blockers of GLD-1/TGE RNA complex formation – biochemical, fluorescence polarization, C. elegans, dose response (AID 2802);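 note: fluorescence polarization of labeled TGE RNA bound by purified gld-1 protein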"}, "[3]": {"biological_target": "T1, Orexin/Hypocretin receptor type 1 (Homo sapiens, UniProt O43613)", "T1 sequence (O43613 whole entry)": "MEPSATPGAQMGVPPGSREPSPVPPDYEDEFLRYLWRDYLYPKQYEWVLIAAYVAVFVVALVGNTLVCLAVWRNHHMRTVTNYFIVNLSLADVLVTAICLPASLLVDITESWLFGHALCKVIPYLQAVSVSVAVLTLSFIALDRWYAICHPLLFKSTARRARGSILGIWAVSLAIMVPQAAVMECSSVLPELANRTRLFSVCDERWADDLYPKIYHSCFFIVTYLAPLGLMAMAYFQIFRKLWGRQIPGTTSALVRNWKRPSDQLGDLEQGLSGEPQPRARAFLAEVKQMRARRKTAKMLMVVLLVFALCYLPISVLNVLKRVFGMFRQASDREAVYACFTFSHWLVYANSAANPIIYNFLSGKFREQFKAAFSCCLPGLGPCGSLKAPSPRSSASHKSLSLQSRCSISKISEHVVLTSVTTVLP", "assay": "(§1) Fluorescence-based cell-based high throughput dose response assay for antagonists of the orexin 1 receptor (OX1R; HCRTR1). [Related pubchem assays (depositor defined):AID434989, AID435008, AID463079, AID485270, AID492963, AID492964, AID492965, AID493232, AID504717, AID504718]", "type": "functional"}, "[4]": {"biological_target": "T1, Orexin/Hypocretin receptor type 1", "assay": "as §1, with “Homogeneous Time Resolved Fluorescence (HTRF)-based” for “Fluorescence-based”", "type": "functional"}, "[5]": {"assay": "(§2) Counterscreen for antagonists of the orexin 1 receptor (OX1R; HCRTR1): Fluorescence-based cell-based high throughput dose response assay to identify antagonists of the parental CHO cell line. [Related pubchem assays (depositor defined):AID434989, AID435008, AID463079, AID485270, AID492963, AID492964, AID492965, AID493232, AID504699, AID504701]", "type": "functional"}, "CHO-K1": {"tested_on": "CHO-K1", "assay": "as §2, with “Homogeneous time resolved fluorescence (HTRF)-based” for “Fluorescence-based”, “cell-based” for “cell-based high throughput”, “CHO-K1” for “CHO”", "type": "functional", "details": "Cricetulus griseus"}, "[6]": {"biological_target": "T2, Polyadenylate-binding protein 1 (Homo sapiens, UniProt P11940)", "T2 sequence (P11940 whole entry, the tested form may be a part)": "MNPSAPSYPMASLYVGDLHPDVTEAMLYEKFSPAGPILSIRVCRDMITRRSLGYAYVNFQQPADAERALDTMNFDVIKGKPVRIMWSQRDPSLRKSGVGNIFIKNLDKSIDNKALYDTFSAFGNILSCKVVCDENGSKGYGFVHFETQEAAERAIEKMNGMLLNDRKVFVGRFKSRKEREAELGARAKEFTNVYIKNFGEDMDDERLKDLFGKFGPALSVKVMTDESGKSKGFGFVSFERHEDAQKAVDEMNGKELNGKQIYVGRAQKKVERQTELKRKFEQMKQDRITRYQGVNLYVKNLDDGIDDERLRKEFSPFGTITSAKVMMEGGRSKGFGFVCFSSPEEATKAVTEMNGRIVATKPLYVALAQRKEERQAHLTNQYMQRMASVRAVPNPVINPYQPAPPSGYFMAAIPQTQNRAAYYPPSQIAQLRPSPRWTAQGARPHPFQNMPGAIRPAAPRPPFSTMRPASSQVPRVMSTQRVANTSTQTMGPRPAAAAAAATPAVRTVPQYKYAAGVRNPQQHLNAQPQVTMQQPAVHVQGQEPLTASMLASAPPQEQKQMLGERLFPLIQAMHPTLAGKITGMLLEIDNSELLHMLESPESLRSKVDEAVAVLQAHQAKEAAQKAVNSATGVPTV", "assay": "MLLE domain peptide-binding blockers, IC50 – biochemical, fluorescence polarization, FITC-PAM2 peptide, dose response (AID 602259)", "type": "functional", "details": "read-out: IC50_Mean"}, "[7]": {"biological_target": "T2, Polyadenylate-binding protein 1", "assay": "MLLE binding blockers, Cy5 peptide tracer – biochemical, fluorescence polarization, Cy5-PAM2 peptide, secondary, miRNA deadenylation inhibitor project, dose response (AID 602260)", "type": "functional", "details": "read-out: IC50_Mean"}, "Hexokinase": {"biological_target": "Hexokinase (Trypanosoma brucei, UniProt Q38C41)", "sequence (Q38C41 whole entry)": "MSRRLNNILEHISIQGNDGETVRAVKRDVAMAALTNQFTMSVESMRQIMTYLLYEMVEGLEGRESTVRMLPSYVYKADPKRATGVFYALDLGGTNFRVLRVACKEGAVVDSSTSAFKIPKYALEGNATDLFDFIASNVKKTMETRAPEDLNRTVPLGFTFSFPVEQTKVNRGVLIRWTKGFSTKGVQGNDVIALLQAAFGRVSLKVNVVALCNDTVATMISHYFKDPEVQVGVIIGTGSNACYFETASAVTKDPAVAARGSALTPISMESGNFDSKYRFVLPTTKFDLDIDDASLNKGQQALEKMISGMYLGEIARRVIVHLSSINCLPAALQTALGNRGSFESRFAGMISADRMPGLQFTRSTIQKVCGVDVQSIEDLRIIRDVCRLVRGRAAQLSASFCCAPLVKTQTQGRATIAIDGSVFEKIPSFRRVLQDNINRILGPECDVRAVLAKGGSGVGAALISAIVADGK", "assay": "Confirmation assay for inhibitors of Trypanosoma brucei hexokinase 1-Analogue-first series. [Related pubchem assays (depositor defined):AID1430, AID1632, AID2516, AID2560, AID2579, AID2600, AID449725, AID492951]", "type": "functional"}, "[8]": {"biological_target": "T3, Tyrosine-protein phosphatase non-receptor type 7 (Homo sapiens, UniProt P35236)", "T3 sequence (P35236 whole entry)": "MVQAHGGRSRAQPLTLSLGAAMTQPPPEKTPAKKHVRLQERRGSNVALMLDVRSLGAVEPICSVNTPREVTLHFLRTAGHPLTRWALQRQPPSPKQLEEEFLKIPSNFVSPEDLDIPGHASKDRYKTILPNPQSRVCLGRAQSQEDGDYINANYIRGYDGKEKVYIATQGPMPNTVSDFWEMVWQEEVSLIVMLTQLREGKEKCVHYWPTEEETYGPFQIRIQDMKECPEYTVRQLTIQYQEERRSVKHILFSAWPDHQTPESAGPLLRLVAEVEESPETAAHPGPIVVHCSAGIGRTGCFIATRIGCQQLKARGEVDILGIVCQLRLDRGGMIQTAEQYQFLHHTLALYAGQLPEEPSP", "assay": "inhibition of hematopoietic tyrosine phosphatase HePTP – biochemical, set 2, SAR follow-up (AID 449736)", "type": "functional"}, "Large T antigen": {"biological_target": "Large T antigen (Simian virus 40, UniProt P03070)", "type": "functional, Betapolyomavirus macacae"}, "[9]": {"biological_target": "FAD-linked sulfhydryl oxidase ALR (Homo sapiens, UniProt P55789)", "sequence (P55789 whole entry)": "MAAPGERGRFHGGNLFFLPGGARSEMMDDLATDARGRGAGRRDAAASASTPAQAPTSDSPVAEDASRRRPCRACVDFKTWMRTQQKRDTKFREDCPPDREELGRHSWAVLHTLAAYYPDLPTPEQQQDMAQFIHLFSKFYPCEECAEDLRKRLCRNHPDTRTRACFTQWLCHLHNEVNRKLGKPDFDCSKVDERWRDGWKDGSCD", "assay": "ALR-catalysed DTT oxidation blockers – biochemical, H2O2 detection, luminescence, cherry-pick, dose response (AID 493248)"}, "[10]": {"biological_target": "T4, Voltage-gated N-type calcium channel alpha-1B subunit/Amyloid beta A4 precursor protein-binding family A member 1 (Homo sapiens, UniProt Q00975+Q02410)", "T4 sequence (Q00975 whole entry)": "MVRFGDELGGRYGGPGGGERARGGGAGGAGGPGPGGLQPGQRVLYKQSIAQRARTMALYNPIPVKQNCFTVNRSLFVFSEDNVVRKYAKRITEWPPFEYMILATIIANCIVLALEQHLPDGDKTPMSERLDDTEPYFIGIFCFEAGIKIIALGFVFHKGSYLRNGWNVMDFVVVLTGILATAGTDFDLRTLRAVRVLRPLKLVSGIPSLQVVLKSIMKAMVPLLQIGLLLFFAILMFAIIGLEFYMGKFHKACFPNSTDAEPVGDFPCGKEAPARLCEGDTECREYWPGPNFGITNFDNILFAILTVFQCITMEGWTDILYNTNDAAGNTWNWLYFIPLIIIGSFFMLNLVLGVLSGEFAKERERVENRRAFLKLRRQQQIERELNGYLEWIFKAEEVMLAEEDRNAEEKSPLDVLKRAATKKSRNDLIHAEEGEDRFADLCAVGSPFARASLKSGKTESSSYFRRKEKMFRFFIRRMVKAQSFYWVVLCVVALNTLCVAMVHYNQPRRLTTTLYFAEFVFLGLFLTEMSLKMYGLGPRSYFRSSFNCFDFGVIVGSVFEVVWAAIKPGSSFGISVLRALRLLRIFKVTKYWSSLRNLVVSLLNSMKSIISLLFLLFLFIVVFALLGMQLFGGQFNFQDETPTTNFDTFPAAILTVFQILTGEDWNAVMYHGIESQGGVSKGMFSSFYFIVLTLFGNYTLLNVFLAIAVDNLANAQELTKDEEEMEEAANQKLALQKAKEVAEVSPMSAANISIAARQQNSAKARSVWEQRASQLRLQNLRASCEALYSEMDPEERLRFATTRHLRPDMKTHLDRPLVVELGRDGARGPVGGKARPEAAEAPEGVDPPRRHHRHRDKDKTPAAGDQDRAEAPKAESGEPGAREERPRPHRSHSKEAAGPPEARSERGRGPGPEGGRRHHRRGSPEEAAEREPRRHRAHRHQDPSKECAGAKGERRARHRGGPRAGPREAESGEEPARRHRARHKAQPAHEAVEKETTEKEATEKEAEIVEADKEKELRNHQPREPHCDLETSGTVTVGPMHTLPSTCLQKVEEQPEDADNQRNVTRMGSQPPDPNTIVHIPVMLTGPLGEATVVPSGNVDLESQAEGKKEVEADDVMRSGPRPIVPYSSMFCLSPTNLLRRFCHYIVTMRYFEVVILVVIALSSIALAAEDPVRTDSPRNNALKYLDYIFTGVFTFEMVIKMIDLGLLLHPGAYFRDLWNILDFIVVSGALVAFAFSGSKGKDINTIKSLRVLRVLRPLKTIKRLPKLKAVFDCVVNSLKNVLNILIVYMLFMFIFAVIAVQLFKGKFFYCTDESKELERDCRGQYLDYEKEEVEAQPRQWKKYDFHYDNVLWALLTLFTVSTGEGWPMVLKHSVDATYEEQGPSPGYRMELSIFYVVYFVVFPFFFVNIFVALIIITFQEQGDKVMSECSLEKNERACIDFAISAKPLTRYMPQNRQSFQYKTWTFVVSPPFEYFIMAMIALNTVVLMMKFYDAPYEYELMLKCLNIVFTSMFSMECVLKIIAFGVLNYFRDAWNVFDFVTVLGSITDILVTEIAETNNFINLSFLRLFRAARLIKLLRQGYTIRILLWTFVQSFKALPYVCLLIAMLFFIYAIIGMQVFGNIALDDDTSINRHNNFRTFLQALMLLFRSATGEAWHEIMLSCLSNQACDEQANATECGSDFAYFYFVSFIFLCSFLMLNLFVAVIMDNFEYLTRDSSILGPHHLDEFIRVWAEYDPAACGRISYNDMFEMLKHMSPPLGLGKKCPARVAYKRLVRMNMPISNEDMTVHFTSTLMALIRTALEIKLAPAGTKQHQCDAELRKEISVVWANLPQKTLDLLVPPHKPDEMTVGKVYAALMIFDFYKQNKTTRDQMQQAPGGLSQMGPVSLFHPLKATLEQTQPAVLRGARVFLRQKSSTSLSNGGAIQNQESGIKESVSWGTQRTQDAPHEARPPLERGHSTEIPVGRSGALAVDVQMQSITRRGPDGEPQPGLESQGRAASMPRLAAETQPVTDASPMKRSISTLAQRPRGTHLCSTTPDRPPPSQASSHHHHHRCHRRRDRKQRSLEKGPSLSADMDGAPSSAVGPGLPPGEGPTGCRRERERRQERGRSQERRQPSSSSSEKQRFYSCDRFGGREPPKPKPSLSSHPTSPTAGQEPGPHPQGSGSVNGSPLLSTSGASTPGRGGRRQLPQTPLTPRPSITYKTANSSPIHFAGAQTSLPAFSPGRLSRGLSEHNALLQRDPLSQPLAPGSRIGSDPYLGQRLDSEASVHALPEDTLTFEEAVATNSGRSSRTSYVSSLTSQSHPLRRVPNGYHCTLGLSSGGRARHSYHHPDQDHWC", "T4 sequence (Q02410 whole entry)": "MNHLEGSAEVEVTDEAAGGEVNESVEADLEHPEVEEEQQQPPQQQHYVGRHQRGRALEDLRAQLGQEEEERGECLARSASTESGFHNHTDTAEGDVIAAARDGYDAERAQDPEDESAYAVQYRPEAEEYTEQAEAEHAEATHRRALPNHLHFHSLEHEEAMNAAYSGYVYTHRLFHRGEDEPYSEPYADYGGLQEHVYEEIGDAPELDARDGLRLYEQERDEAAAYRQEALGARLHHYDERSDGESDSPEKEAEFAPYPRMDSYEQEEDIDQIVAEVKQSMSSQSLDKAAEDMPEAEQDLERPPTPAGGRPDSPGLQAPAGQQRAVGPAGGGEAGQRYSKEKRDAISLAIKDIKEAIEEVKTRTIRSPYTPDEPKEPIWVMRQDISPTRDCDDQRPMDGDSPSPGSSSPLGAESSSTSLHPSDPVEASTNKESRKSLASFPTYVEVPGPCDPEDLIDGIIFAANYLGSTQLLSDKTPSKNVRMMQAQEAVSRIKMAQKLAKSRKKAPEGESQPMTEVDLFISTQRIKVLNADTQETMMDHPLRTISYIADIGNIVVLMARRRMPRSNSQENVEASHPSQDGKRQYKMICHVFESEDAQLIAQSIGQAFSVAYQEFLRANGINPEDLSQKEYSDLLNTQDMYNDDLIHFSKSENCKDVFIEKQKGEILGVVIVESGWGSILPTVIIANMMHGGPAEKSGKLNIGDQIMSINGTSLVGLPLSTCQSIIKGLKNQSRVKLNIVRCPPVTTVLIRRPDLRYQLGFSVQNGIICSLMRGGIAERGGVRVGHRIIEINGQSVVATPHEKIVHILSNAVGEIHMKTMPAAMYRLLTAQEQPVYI", "type": "protein assay"}, "[11]": {"biological_target": "T5, Carboxy-terminal domain RNA polymerase II polypeptide A small phosphatase 1 (Homo sapiens, UniProt Q9GZU7)", "T5 sequence (Q9GZU7 whole entry)": "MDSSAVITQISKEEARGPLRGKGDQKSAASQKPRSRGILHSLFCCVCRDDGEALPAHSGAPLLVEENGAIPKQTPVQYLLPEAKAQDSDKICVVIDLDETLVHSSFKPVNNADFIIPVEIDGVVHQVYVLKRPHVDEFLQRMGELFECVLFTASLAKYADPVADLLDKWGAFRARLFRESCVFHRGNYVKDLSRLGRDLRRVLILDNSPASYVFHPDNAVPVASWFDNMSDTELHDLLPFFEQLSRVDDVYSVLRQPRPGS", "assay": "CTDSP1 inhibitors, concentration-response, biochemical, absorbance readout, ultra-high-throughput screen actives (AID 540297)", "type": "functional"}, "[12]": {"biological_target": "T4, Voltage-gated N-type calcium channel alpha-1B subunit/Amyloid beta A4 precursor protein-binding family A member 1", "type": "protein assay", "remark": "listed apart in the source"}, "[13]": {"biological_target": "Induced myeloid leukemia cell differentiation protein Mcl-1 (Homo sapiens, UniProt Q07820)", "type": "functional"}}, "note": "Activity calls are given as the source filed them."}
{"smiles": "Cc1ccc2oc(-c3ccc(C)c(NC(=O)Cc4cccs4)c3)nc2c1", "values": [{"measurement": "IC50", "setting": "SUMO-activating enzyme", "result": "> 100 µM (inactive)"}]}
{"smiles": "CCN(c1ccccc1)S(=O)(=O)c1ccc(C(=O)N(CCN(C)C)c2nc3c(F)cc(F)cc3s2)cc1", "values": [{"measurement": "EC50", "setting": "[1]", "result": "> 32 µM (inactive)"}]}
{"smiles": "COc1ccc(NC(=O)Cc2ccccc2)cn1", "values": [{"measurement": "IC50", "setting": "Protein Rev", "result": "> 25.2 µM (not active)"}, {"measurement": "IC50", "setting": "[2]", "result": "15.1 µM (inactive)"}]}
{"smiles": "Cn1c2ccc(F)cc2c2nc3ccccc3nc21", "values": [{"measurement": "IC50", "setting": "[3]", "result": "6.95 µM (active)"}, {"measurement": "IC50", "setting": "[4]", "result": "1.17 µM (active)"}, {"measurement": "IC50", "setting": "[5]", "result": "> 49.7 µM (inactive)"}, {"measurement": "IC50", "setting": "CHO-K1", "result": "> 66.2 µM (inactive)"}]}
{"smiles": "CCOC(=O)c1cc2c(ccn2C)n1CC(=O)N(Cc1ccccc1)c1ccccc1", "values": [{"measurement": "IC50", "setting": "[6]", "result": "> 66 µM (inactive)"}, {"measurement": "IC50", "setting": "Protein Rev", "result": "> 75.4 µM (not active)"}, {"measurement": "IC50", "setting": "[2]", "result": "> 6.62 µM (active)"}, {"measurement": "IC50", "setting": "[7]", "result": "> 66 µM (inactive)"}]}
{"smiles": "O=C(Cn1sc2ccccc2c1=O)Nc1cccc(F)c1", "values": [{"measurement": "IC50", "setting": "Hexokinase", "result": "4.78 µM (active)"}]}
{"smiles": "CCNS(=O)(=O)c1ccc(NC(=S)NC2CCCCC2)cc1", "values": [{"measurement": "IC50", "setting": "[8]", "result": "> 100 µM (inactive)"}]}
{"smiles": "COc1ccc(NC(=O)Cn2sc3ccccc3c2=O)cc1", "values": [{"measurement": "IC50", "setting": "Hexokinase", "result": "5.63 µM (active)"}]}
{"smiles": "COc1cc(/C=N/NC(=O)c2cccs2)ccc1O", "values": [{"measurement": "IC50", "setting": "Large T antigen", "result": "5.62 µM (active)"}, {"measurement": "AC50", "setting": "[9]", "result": "1.65 µM (active)"}]}
{"smiles": "Cc1c(O)cc2c(c1O)C(=O)CC(c1ccc(O)cc1)O2", "note": "(stereo unspecified)", "values": [{"measurement": "IC50", "setting": "[10]", "result": "> 50 µM (inactive)"}, {"measurement": "IC50", "setting": "[11]", "result": "4.74 µM (active)"}, {"measurement": "IC50", "setting": "[12]", "result": "13.1 µM (active)"}, {"measurement": "IC50", "setting": "[13]", "result": "3.94 µM (active)"}]}
